From ChEMBL document CHEMBL5579884, “Cellular, Structural Basis, and Recent Progress for Targeting Murine Double Minute X (MDMX) in Tumors” (J Med Chem, 2024)

Columns and labels:
MKN-45 = assay: Cytotoxicity against human MKN-45 cells assessed as reduction in cell growth incubated for 48 hrs by MTT assay; settings: MKN-45, 48 h
BGC-823 = assay: Cytotoxicity against human BGC-823 cells assessed as reduction in cell growth incubated for 48 hrs by MTT assay; settings: BGC-823, 48 h
SGC-7901 = assay: Cytotoxicity against human SGC-7901 cells assessed as reduction in cell growth incubated for 48 hrs by MTT assay; settings: SGC-7901, 48 h
[1] = system: KATO III stomach cancer cell line; assay: Cytotoxicity against human KATO III stomach cancer cell line assessed as reduction in cell growth incubated for 48 hrs by MTT assay
HGC-27 = assay: Cytotoxicity against human HGC-27 cells assessed as reduction in cell growth incubated for 48 hrs by MTT assay; settings: HGC-27, 48 h
NCI-N87 = assay: Cytotoxicity against human NCI-N87 cells assessed as reduction in cell growth incubated for 48 hrs by MTT assay; settings: NCI-N87, 48 h
MCF7 [2] = assay: Cytotoxicity against human MCF7 cells assessed as reduction in cell growth
ZR-75-1 = assay: Cytotoxicity against human ZR-75-1 cells assessed as reduction in cell growth
ZR-75-30 = assay: Cytotoxicity against human ZR-75-30 cells assessed as reduction in cell growth
BT-474 = assay: Cytotoxicity against human BT-474 cells assessed as cell growth inhibition
BT-549 = assay: Cytotoxicity against human BT-549 cells assessed as cell growth inhibition
Prostatic carcinoma cell = assay: Cytotoxicity against human Prostatic carcinoma cell
MDA-MB-175-VII = assay: cells; settings: Homo sapiens
Description: Cytotoxicity against human MDA-MB-175-VII cells assessed as reduction in cell growth

Hs-578T = assay: cells; settings: Homo sapiens
Description: Cytotoxicity against human Hs-578T cells assessed as cell growth inhibition

MCF7 [3] = assay: Antiproliferative activity against human MCF7 cells assessed as reduction in cell growth
HCT-116 [4] = assay: Antiproliferative activity against human HCT-116 cells assessed as reduction in cell growth by MTT assay
RKO = assay: Antiproliferative activity against human RKO cells assessed as reduction in cell growth
LNCaP [5] = assay: Antiproliferative activity against human LNCaP cells assessed as reduction in cell growth
LNCaP C4-2 = assay: Antiproliferative activity against human C4-2 cells assessed as reduction in cell growth
SW480 = assay: Antiproliferative activity against human SW480 cells assessed as reduction in cell growth
MDA-MB-435 = assay: Antiproliferative activity against human MDA-MB-435 cells assessed as reduction in cell growth
LAPC4 = assay: Antiproliferative activity against human LAPC4 cells assessed as reduction in cell growth
DU-145 [6] = assay: Antiproliferative activity against human DU-145 cells assessed as reduction in cell growth
PC-3 [7] = assay: Antiproliferative activity against human PC-3 cells assessed as reduction in cell growth
Protein Mdm4 [8] = target: T1, Protein Mdm4 (Homo sapiens, UniProt O15151); assay: Inhibition of MDMX (unknown origin)
T1 sequence (O15151 whole entry): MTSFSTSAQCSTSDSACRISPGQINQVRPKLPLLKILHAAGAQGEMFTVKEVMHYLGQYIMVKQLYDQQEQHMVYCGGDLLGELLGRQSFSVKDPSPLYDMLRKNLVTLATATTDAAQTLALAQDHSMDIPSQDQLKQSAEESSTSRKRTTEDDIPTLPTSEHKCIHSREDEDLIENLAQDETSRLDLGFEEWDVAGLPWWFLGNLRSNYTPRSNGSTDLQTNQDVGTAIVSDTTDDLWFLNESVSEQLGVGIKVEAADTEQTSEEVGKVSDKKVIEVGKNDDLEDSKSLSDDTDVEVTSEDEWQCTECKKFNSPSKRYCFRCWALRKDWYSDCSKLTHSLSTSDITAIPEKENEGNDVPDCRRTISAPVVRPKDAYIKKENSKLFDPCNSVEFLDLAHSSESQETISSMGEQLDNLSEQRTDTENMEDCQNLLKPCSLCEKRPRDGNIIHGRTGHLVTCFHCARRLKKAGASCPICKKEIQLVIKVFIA

[9] = target: T2, E3 ubiquitin-protein ligase Mdm2 (Homo sapiens, UniProt Q00987); assay: Inhibition of MDM2 (unknown origin)
T2 sequence (Q00987 whole entry): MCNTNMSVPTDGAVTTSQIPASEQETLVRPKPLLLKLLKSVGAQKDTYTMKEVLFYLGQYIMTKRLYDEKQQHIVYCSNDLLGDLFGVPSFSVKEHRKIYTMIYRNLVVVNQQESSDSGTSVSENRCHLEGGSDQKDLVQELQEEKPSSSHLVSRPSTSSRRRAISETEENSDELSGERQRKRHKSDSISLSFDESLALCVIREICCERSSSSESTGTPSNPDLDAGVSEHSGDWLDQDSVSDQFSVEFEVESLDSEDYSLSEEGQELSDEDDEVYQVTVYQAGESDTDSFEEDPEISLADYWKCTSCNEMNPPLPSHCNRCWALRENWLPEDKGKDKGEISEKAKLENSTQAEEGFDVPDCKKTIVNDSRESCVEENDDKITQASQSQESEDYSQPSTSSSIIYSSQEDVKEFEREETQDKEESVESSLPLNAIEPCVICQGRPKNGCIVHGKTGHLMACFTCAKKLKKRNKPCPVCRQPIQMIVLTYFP

MCF7 [10] = assay: Antiproliferative activity against human MCF7 cells assessed as reduction in cell viability measured for 48 hrs by MTT assay; settings: MCF7, 48 h
OCI-AML-3 = assay: Antiproliferative activity against human OCI-AML-3 cells assessed as reduction in cell viability measured for 48 hrs by MTT assay; settings: OCI-AML-3, 48 h
HCT-116 [11] = assay: Antiproliferative activity against human HCT-116 cells assessed as reduction in cell viability measured for 48 hrs by MTT assay; settings: HCT-116, 48 h
A549 = assay: Antiproliferative activity against human A549 cells assessed as reduction in cell viability measured for 48 hrs by MTT assay; settings: A549, 48 h
[12] = target: T2, E3 ubiquitin-protein ligase Mdm2; assay: Binding affinity to MDM2 (unknown origin) assessed as dissociation constant
HCT-116 [13] = assay: Antiproliferative activity against human HCT-116 cells assessed as reduction in cell viability incubated for 24 hrs by Celltiter-Glo assay; settings: HCT-116, 24 h
U-87 MG = assay: Antiproliferative activity against human U-87 MG cells assessed as reduction in cell growth incubated for 72 hrs by MTS assay
MCF7 [14] = assay: Antiproliferative activity against human MCF7 cells assessed as reduction in cell growth incubated for 72 hrs by MTS assay; settings: MCF7, 72 h
[15] = Antiproliferative activity against human U373 MG cells assessed as reduction in cell growth incubated for 72 hrs by MTS assay
[16] = Antiproliferative activity against human C20/A4 cells assessed as reduction in cell growth incubated for 72 hrs by MTS assay
T98G = assay: Antiproliferative activity against human T98G cells assessed as reduction in cell growth incubated for 72 hrs by MTS assay
[17] = Cytotoxicity against human Triple-negative breast cancer cell; settings: Breast carcinoma cell
Breast cancer cell line = assay: Cytotoxicity against human Breast cancer cell line
[18] = Antiproliferative activity against human IMR-90 cells assessed as reduction in cell viability incubated for 24 hrs by Celltiter-Glo assay
LNCaP [19] = assay: Antiproliferative activity against human LNCaP cells assessed as reduction in cell viability incubated for 24 hrs by Celltiter-Glo assay
PC-3 [20] = assay: Antiproliferative activity against human PC-3 cells assessed as reduction in cell viability incubated for 24 hrs by Celltiter-Glo assay; settings: PC-3, 24 h
DU-145 [21] = assay: Antiproliferative activity against human DU-145 cells assessed as reduction in cell viability incubated for 24 hrs by Celltiter-Glo assay; settings: DU-145, 24 h
[22] = Antiproliferative activity against human RWPE-1 cells assessed as reduction in cell viability incubated for 24 hrs by Celltiter-Glo assay
HCT-116 [23] = assay: Antiproliferative activity against human HCT-116 cells assessed as reduction in cell growth
SJSA-1 = assay: Antiproliferative activity against human SJSA-1 cells assessed as reduction in cell growth
SH-SY5Y = assay: Antiproliferative activity against human SH-SY5Y cells assessed as reduction in cell growth
[24] = Antiproliferative activity against human BEAS-2B cells assessed as reduction in cell growth
L02 = assay: Antiproliferative activity against human L02 cells assessed as reduction in cell growth
HL-60 = assay: Antiproliferative activity against human HL-60 cells assessed as reduction in cell viability incubated for 24 hrs by Celltiter-Glo assay; settings: HL-60, 24 h
[25] = target: T2, E3 ubiquitin-protein ligase Mdm2; assay: Binding affinity to MDM2 (unknown origin) assessed as inhibition constant
Protein Mdm4 [26] = target: T1, Protein Mdm4; assay: Binding affinity to MDMX (unknown origin) assessed as inhibition constant
OCI-AML2 = assay: Antiproliferative activity against human OCI-AML2 cells assessed as reduction in cell viability incubated for 24 hrs by Celltiter-Glo assay; settings: OCI-AML2, 24 h
MCF7 [27] = assay: Antiproliferative activity against human MCF7 cells assessed as reduction in cell viability incubated for 24 hrs by Celltiter-Glo assay; settings: MCF7, 24 h
[28] = target: T2, E3 ubiquitin-protein ligase Mdm2
Protein Mdm4 [29] = target: T1, Protein Mdm4

Cc1c2ccccc2c(CSC(=N)N)c2ccccc12
IC50 (MKN-45): 1.2 µM
IC50 (BGC-823): 1.2 µM
IC50 (SGC-7901): 1.2 µM
IC50 [1]: 1.2 µM
IC50 (HGC-27): 1.2 µM
IC50 (NCI-N87): 1.2 µM
IC50 (MCF7 [2]): 1.5 µM
IC50 (ZR-75-1): 1.5 µM
IC50 (ZR-75-30): 1.5 µM
IC50 (BT-474): 1.5 µM
IC50 (BT-549): 1.5 µM
IC50 (Prostatic carcinoma cell): 1.5 µM
IC50 (MDA-MB-175-VII): 1.5 µM
IC50 (Hs-578T): 1.5 µM

Cc1c(Cl)ccc2c(/C=C3\NC(=O)N(C(C(=O)NC(CO)CO)c4ccc(F)c(F)c4)C3=O)c[nH]c12 (stereo not given)
IC50 (MCF7 [3]): 3.5 µM
IC50 (HCT-116 [4]): 3 µM
IC50 (RKO): 3.2 µM
IC50 (LNCaP [5]): 1.1 µM
IC50 (LNCaP C4-2): 1.7 µM
IC50 (SW480): > 50 µM
IC50 (MDA-MB-435): 25.3 µM
IC50 (LAPC4): 1.2 µM
IC50 (DU-145 [6]): 45.5 µM
IC50 (PC-3 [7]): 45.3 µM

CC(C)C(=O)Nc1ccccc1SC(=O)C(C)C
IC50 (Protein Mdm4 [8]): 1.5 µM
IC50 [9]: 13.1 µM
IC50 (MCF7 [10]): 18 µM
IC50 (OCI-AML-3): 18 µM
IC50 (HCT-116 [11]): 16 µM
IC50 (A549): > 30 µM

C[C@@H](c1ccc(Cl)cc1Cl)n1cnc(-c2ccccc2)c1-c1c(C(=O)Nc2cc(C(=O)O)ccc2N2CCC(N3CCCOC3=O)CC2)[nH]c2cc(Cl)ccc12
Kd [12]: < 0.0001 µM

Cc1ccnc(NC(c2cccc(Cl)c2Cl)c2ccc3cccnc3c2O)c1 (stereo not given)
IC50 (HCT-116 [13]): 0.6 µM

Cc1c(Cl)ccc2c(/C=C3\NC(=O)N(Cc4ccc(F)c(F)c4)C3=O)c[nH]c12
IC50 (U-87 MG): 1.4 µM
IC50 (MCF7 [14]): 1.9 µM
IC50 [15]: 1 µM
IC50 at 72 h [16]: 4.5 µM
IC50 (T98G): > 10 µM

Brc1c2ccccc2c(C[P+](c2ccccc2)(c2ccccc2)c2ccccc2)c2ccccc12
IC50 [17]: 3.7 µM
IC50 (Breast cancer cell line): 3.7 µM

C=C1C(=O)O[C@H]2C[C@H](C)[C@@]34C[C@]5(C(=O)OC6CC(C)=C([C@H](C)CCCOC(C)=O)[C@@H](O)C65)[C@@H](C(C)=C3C[C@H]12)C4OC(C)=O (stereo not given in full)
IC50 at 24 h [18]: > 50 µM
IC50 (LNCaP [19]): 1.7 µM
IC50 (PC-3 [20]): 1.3 µM
IC50 (DU-145 [21]): 4 µM

COC(C)(C)CCC[C@](C)(O)[C@H]1CC[C@]2(C)[C@@H]1[C@H](O)C[C@@H]1[C@@]3(C)CC[C@H](O)C(C)(C)[C@@H]3CC[C@]12C
IC50 (LNCaP [19]): 9.6 µM
IC50 (PC-3 [20]): 4.4 µM
IC50 (DU-145 [21]): 7.6 µM
IC50 at 24 h [22]: > 50 µM

CN(C)C1CCN(C(=O)CCC(=O)C(c2ccc(Cl)cc2)C(C(=O)c2ccc(Cl)cc2)c2ccc(F)cc2Cl)CC1 (stereo not given)
IC50 (HCT-116 [23]): 0.7 µM
IC50 (SJSA-1): 0.6 µM
IC50 (SH-SY5Y): 0.5 µM
IC50 [24]: 18 µM
IC50 (L02): 15.9 µM

COc1cccc2c1NCC2C(=O)N[C@H]1CCN(c2ccc(C)cc2)C1 (stereo not given in full)
IC50 [9]: > 50 µM

N#Cc1c2ccc(N)cc2nc2cc(N)ccc12
IC50 (MCF7 [10]): 4.3 µM
IC50 (OCI-AML-3): 1.3 µM
IC50 (HCT-116 [11]): 2.8 µM
IC50 (A549): 5.3 µM

O=C(CCC(=O)N1CCNCC1)C(c1ccc(Cl)cc1)C(C(=O)c1ccc(Cl)cc1)c1ccc(F)cc1Cl (stereo not given)
IC50 (HCT-116 [23]): 0.7 µM
IC50 (SJSA-1): 0.6 µM
IC50 (SH-SY5Y): 0.7 µM
IC50 [24]: 16.3 µM
IC50 (L02): 12.6 µM

O=c1cc(-c2ccc(Oc3c(O)cc4oc(-c5ccc(O)cc5)cc(=O)c4c3O)cc2)oc2cc(O)cc(O)c12 [HINOKIFLAVONE]
IC50 (HL-60): 11 µM
Ki [25]: 13 µM
Ki (Protein Mdm4 [26]): 12 µM
IC50 (HCT-116 [13]): 14.2 µM
IC50 (OCI-AML2): 4.9 µM
IC50 (MCF7 [27]): 16.3 µM

Ac-ETFLDLWKLELEN-NH2
Kd [28]: 149 µM

Ac-ETFLDLWRLLLQN-NH2
Kd (Protein Mdm4 [29]): 109 µM
